According to patent US20070087344A1, “Methods for characterizing signaling pathways and compounds that interact therewith” (BIOSEEK, INC., priority 2003, published 2007):
Entries after “also recorded” stand apart in the source; their conditions may differ. Read-outs that look alike come from different tables or passages of the source.

What was measured:
Assay type in all cases: cell-based, human
[1] = tested on: Endothelial cells over-expressing single genes from NFkB, PI3K/Akt, RAS/MAPK or JAK/STAT pathways; test: Compound profiling in 20 gene over-expression assays (NFkB, PI3K/Akt, RAS/MAPK, JAK/STAT), pairwise Pearson correlation; details: DRB 10 micromolar, Apigenin 6 micromolar, 24 hours
Method: Endothelial cells expressing 16 individual genes from NFκB, RAS, PI3K/AKT and JAK/STAT (IFN-γ and IL-4) pathways were treated with compounds for 24 hours. Where indicated additional cytokines were added to cells to reveal activity of the over-expressed genes (e.g. AKT1/IL1 means that IL-1-beta was added to AKT-over-expressing cells). Parameters measured were VCAM-1 for NFκB, PI3K, and RAS/MAPK pathway genes, HLA-DR for JAK/STAT(IFNγ) pathway genes, and VCAM-1 (IL4/VCAM-1) and Eotaxin-3 (IL4/Eot3) for JAK/STAT(IL4) pathway. […] Statistically significant correlations (permutation method described further in the text and in Example 1B) in the table are shaded (dark grey for correlation coefficients in the range of 0.75 to 1, and light grey for the range of 0.55 to 0.75).
With a permutation technique, an average distribution of the correlation coefficients that will be obtained by chance is constructed and the values of the correlations that correspond to a required level of significance are obtained. The original similarity matrix is filtered using these values, thus providing a consistent way of identifying correlations coefficients with potential biological significance. This method also allows calculation of a false positive rate, providing the user with a way of balancing “hit rate” and stringency of correlation significance. […]

[2] = tested on: HUVEC cell lines over-expressing IKBKB; test: VCAM-1 expression (ELISA) in HUVEC over-expressing IKBKB
[3] = tested on: HUVEC cell lines over-expressing RELA; test: VCAM-1 expression (ELISA) in HUVEC over-expressing RELA
[4] = tested on: MYD88 over-expressing endothelial cells; test: Response to MYD88 over-expression in IL-1-beta-treated endothelial cells (VCAM-1, E-selectin); details: IL-1-beta-treated cells; MYD88 inhibits VCAM-1 and E-selectin expression
Method: (§1) A. Grouping Genes into Signal Transduction Pathways by Gene Over-Expression. Genes encoding key elements of pro-inflammatory pathways (IL-1, TNF-alpha, CD40, and IFN-gamma), the core NFkB pathway, the PI3K/Akt pathway, and the RAS/RAF/MEK pathway (see Table 2) were introduced into endothelial cells by retroviral transduction and allowed to express their encoded proteins for 48 hours, substantially as described in Example 1. The gene-modified endothelial cells were then subjected to 24 hour cytokine stimulation.
(§2) Gene over-expression generally results in activation of the target pathway (in contrast to most pharmaceutical drugs, which are typically inhibitors).
(§3) To explore this observation further, we re-examined the response to MYD88 and genes encoding representative members of the RAS/MAPK and NFkB pathways (RAS* and TNFRSF1A, respectively) in all individual cell systems. […] By contrast, the response induced by MYD88 in IL-1-beta-treated cells was similar to that induced by RAS*, the main effect being to inhibit expression of the adhesion molecules VCAM-1 and E-selectin. Over-expression of MYD88 thus appears to stimulate the RAS/MAPK pathway under these conditions. […] MYD88 (and IRAK1) are known to be involved in IL-1-induced but not in TNF-induced signaling, and PD098059 indeed had no effect on VCAM-1 expression in TNF-alpha-treated cells. […]

[5] = tested on: RAS* over-expressing endothelial cells; test: Response to RAS* over-expression in IL-1-beta-treated endothelial cells (VCAM-1, E-selectin); details: IL-1-beta-treated cells; RAS* inhibits VCAM-1 and E-selectin expression
Method: as §1, §2, §3

TNF-alpha-treated cells = test: VCAM-1 expression in TNF-alpha-treated endothelial cells
From the text: as §2
To explore this observation further, we re-examined the response to MYD88 and genes encoding representative members of the RAS/MAPK and NFkB pathways (RAS* and TNFRSF1A, respectively) in all individual cell systems. […] By contrast, the response induced by MYD88 in IL-1-beta-treated cells was similar to that induced by RAS*, the main effect being to inhibit expression of the adhesion molecules VCAM-1 and E-selectin. Over-expression of MYD88 thus appears to stimulate the RAS/MAPK pathway under these conditions. […] MYD88 (and IRAK1) are known to be involved in IL-1-induced but not in TNF-induced signaling, and PD098059 indeed had no effect on VCAM-1 expression in TNF-alpha-treated cells. Multi-system analysis can thus detect novel functional interrelationships between different signaling pathways.

[6] = tested on: RAS*, RAF* or MEK1* over-expressing cells; test: Profiles induced by over-expression of RAS*, RAF* or MEK1* genes
From the text: The pathway information developed by practice of the methods of the present invention facilitates the in-depth characterization (mechanism-of-action studies) of chemical compounds. […] A high throughput approach can be used to test a compound against genes from known signaling pathways, as well as genes of unknown pathway origin.

[7] = tested on: HUVEC stimulated with IL-1-beta, TNF-alpha and IFN-gamma; test: Functional profiles in HUVEC stimulated with IL-1-beta, TNF-alpha and IFN-gamma compared with siRNA knock-down profiles; details: E-selectin, HLA-DR, ICAM-1, IL-8, MCP-1, MIG, VCAM-1 readouts
From the text: The cells used to generate functional profiles were HUVEC stimulated with a mixture of cytokines IL-1beta+TNF-alpha+IFN-gamma, and the readout parameters were E-selectin, HLA-DR, ICAM-1, IL-8, MCP-1, MIG and VCAM-1. Statistical analysis (permutation method) and generation of a two-dimensional map was done as described above.
Early passage (<5) exponentially growing HUVEC cells were harvested, washed once with PBS, and resuspended at 2×10^6 cells in 100 microliter Nucelofection solution (Human Umbilical Vein Endothelial Cell Nucleofector Kit, AMAXA, Koeln, Germany). SiRNA (15 microliter of a 20 micromolar solution; Dharmacon, Lafayette, Colo.) was added to the cell suspension, transferred into an electroporation cuvette, and electroporated using the U-1 setting on an AMAXA Nucleofector device. The cell suspension was then transferred into a separate tube containing 3 ml of complete EGM-2 media (Clonetics), incubated at 37° C. for 10 minutes, and plated into 96-well microtiter plates (25,000 cells/well) for cytokine activation and ELISA analysis as described above. Statistical analyses and pairwise correlation analyses of functional profiles obtained by gene knock-down were performed in the manner as described for the gene-over-expression approach described above.

[8] = tested on: HUVEC cell lines over-expressing TNF-alpha; test: VCAM-1 expression (ELISA) in HUVEC over-expressing TNF-alpha

OC[C@H]1O[C@@H](n2cnc3cc(Cl)c(Cl)cc32)[C@H](O)[C@@H]1O [DRB]
Overlap of functional profile with those of 17-MG and beta-zearalenol [1]: only in the JAK/STAT portion of the overall profile

CC(Cc1ccc(O)c(O)c1)C(C)Cc1ccc(O)c(O)c1 (stereo not shown) [NDGA, nordihydroguaiaretic acid]
Inhibition of IKBKB induced VCAM-1 expression [2]: not IKBKB or RELA induced VCAM-1 expression; also recorded: inhibits only the TNF-alpha gene | Inhibition of RELA induced VCAM-1 expression [3]: not IKBKB or RELA induced VCAM-1 expression; also recorded: inhibits only the TNF-alpha gene

COc1cccc(-c2cc(=O)c3ccccc3o2)c1N [PD098059]
Effect on the response induced by MYD88 over-expression [4]: reversed the effect | Effect on the response induced by RAS* over-expression [5]: reversed the effect | Effect on VCAM-1 expression (TNF-alpha-treated cells): no effect | Effect on profiles induced by RAS*, RAF* or MEK1* genes ([6]; gene over-expressing cells): affected

Oc1ccc(-c2nc(-c3ccncc3)c(-c3ccc(F)cc3)[nH]2)cc1 [SB202190]
Similarity of functional profile to siRNA-mediated dual knock-down of MEK3 and 6 [7]: similar

N#CC(=C(/N)Sc1ccccc1N)/C(C#N)=C(/N)Sc1ccccc1N [Uo126]
Effect on profiles induced by RAS*, RAF* or MEK1* genes [6]: affected

O=c1cc(-c2ccc(O)cc2)oc2cc(O)cc(O)c12 [apigenin]
Overlap of functional profile with those of 17-MG and beta-zearalenol [1]: only in the JAK/STAT portion of the overall profile

CC(C)Cc1ccc(C(C)C(=O)O)cc1 (stereo not shown) [ibuprofen]
Inhibition of TNF-alpha induced VCAM-1 expression [8]: inhibits TNF-alpha and IKBKB genes | Inhibition of IKBKB induced VCAM-1 expression [2]: inhibits TNF-alpha and IKBKB genes | Inhibition of RELA induced VCAM-1 expression [3]: not in RELA over-expressing cells
